Source: patent US12624173B2, “Biodegradable polymeric compositions, methods of preparation and uses thereof” (B.G. NEGEV TECHNOLOGIES AND APPLICATIONS LTD., AT …, priority 2019, dated 2026)
Where two headings read alike, the source gives them in different places. Blank lines part the entries; values can stand above or below the molecule they belong to.

Columns and labels:
[1] = Cannabidiol distribution in brain and plasma 1 h after IN and IV administration; format: in vivo; details: rat
Protocol: The administered intranasal dose used in each animal was 220 μg CBD/kg body weight. The applied volume was approximately 15 μL/nostril. For the intravenous dose, a solution of CBD for injection was prepared by dissolving CBD in a small portion of ethanol, then mixed with a sterile saline solution (pH7.4) containing 1.5% Tween 80 and 0.1% ascorbic acid. The final concentration of ethanol was 5%. […] After 60 minutes from administration, the animals were euthanized by CO2 aspiration. […] The brain was then carefully excised, washed with saline, frozen at −80° C. and lyophilized.
The quantification of CBD was carried out at 220 nm.

[2] = CBD in oil, humans; cited from earlier work
[3] = rat, in vivo, iv
Protocol: (§1) For intravenous administration, aqueous solution of GR hydrochloride was prepared by dissolving the drug in a sterile saline solution. Approximately 0.3 ml of the solution were injected into the tail vein of a sedated animal (GR HCl dose=36 μg/kg body weight). The animals were sedated with isoflurane vapor just before administration. Sixty minutes after the administration, the animals were euthanized by CO2 aspiration. Then, blood sample was taken by cardiopuncture into heparinized tubes. Blood in heparinized tubes was centrifuged at 10,000-g for 10 min and the separated plasma was transferred into vials and kept at −20° C. until analyzed by HPLC. The brain was then carefully excised, washed with saline and frozen at −80° C.
(§2) Quantification of GR in plasma was performed by mixing 1 ml of plasma sample with 2 ml of methanol, followed by vortex stirring and centrifugation at 10,000-g for 10 min. The brain was homogenized with 2 ml of methanol/0.5 N HCl solution (1:1) followed by centrifugation at 10,000-g for 10 min. The supernatant solutions of both plasma and brain extracts were analyzed immediately by HPLC. Aliquots of 20 μl from each sample were injected into a HPLC system, equipped with a prepacked CN column. The quantification of GR was carried out at 301 nm. The samples were chromatographed using an isocratic mobile phase consisting of acetonitrile-acetate buffer solution pH5 (45:55) at a flow rate of 1 ml/min.

[4] = after IV curcumin in rats; cited from earlier work
[5] = cited from earlier work
[6] = Granisetron distribution in brain and plasma 1 h after IN and IV administration; details: rat
Protocol: as §1, §2

SMILES: C=C(C)[C@@H]1CCC(C)=C[C@H]1c1c(O)cc(CCCCC)cc1O [CBD, Cannabidiol]
concentration at 1 h ([1]; plasma, IV injection of CBD solution, dose 220 μg/Kg, 1 hour after administration, read-out: Plasma level (cannabidiol)): 71.2 ng/mL
CBD brain concentration ([1]; 1 h after iv administration of the same dose (220 μg/Kg)): no detectable concentration
Brain Level (cannabidiol) ([1]; IV injection of CBD solution, dose 220 μg/Kg, 1 hour after administration): Undetectable
oral bioavailability [2]: about 6%

portion of the dose that reached the brain [3]: ca. 0.64%
SMILES: CN1C2CCCC1CC(NC(=O)c1nn(C)c3ccccc13)C2.Cl (stereo not shown) [GR-HCl]

SMILES: COc1cc(/C=C/C(=O)CC(=O)/C=C/c2ccc(O)c(OC)c2)ccc1O [curcumin, diferuloyl methane]
t1/2 [4]: 28.2 min

Plasma level (granisetron) ([6]; IV injection of GR hydrochloride in saline (GR HCl 36 μg/kg), 1 hour after administration): Undetectable
concentration at 1 h ([6]; brain, iv, 36 μg/kg): 59.7 ng/g
SMILES: CN1C2CCCC1CC(NC(=O)c1nn(C)c3ccccc13)C2 (stereo not shown) [granisetron, Granisetron]
average Cmax ([5]; 1 mg oral dose): 3.63 ng/mL
Vd (volume of distribution) ([5]; in vivo): 3.94 L/kg
clearance (CL) ([5]; in vivo): 0.41 L/h/kg
protein binding ([5]; in vivo): 65%
t1/2 ([5]; in vivo): 6.23 h
